Experimental data from US11286256B2, “Bicyclic inhibitors of histone deacetylase” (Alkermes, Inc., priority 2017, dated 2022).
Converted amounts (≈) assume the structure as drawn.

Experiments:
HDAC1 = molecular target: T1, HDAC1 (Homo sapiens, UniProt Q13547); assay: HDAC1 recombinant enzymatic assay; type: biochemical; conditions: 5 h pre-incubation, 5 nM enzyme; read-out: HDAC recombinant enzymatic IC50 HDAC1
T1 construct: purchased BPS Bioscience
Procedure: (§1) The following describes an assay protocol for measuring the deacetylation of a peptide substrate by the enzymes HDAC2 or HDAC1.
(§2) All recombinant human HDACs were purchased from BPS Bioscience. The substrate, FAM-TSRHK(AC)KL-CONH, was synthesized at NanoSyn. Final assay reactions contained 100 mM HEPES (pH 7.5), 50 mM KCl, 0.1% BSA, 0.01% Triton X-100, 1% DMSO, 1 uM substrate and 5 nM HDAC enzyme. Enzyme and compounds were pre-incubated at 25° C. for 5 hours and reactions were initiated by addition of substrate. 10 uL reactions were incubated for 17 hours at 25° C. and terminated by the addition of 40 uL of buffer containing 100 mM HEPES (pH 7.5), 0.1% BSA, 0.01% Triton X-100 and 0.05% SDS. Substrate and product peptides present in each sample were separated electrophoretically using the LabChip 3000 capillary electrophoresis instrument. Change in the relative fluorescence intensity of the substrate and product peaks reflects enzyme activity. Reaction progress was determined as the product to sum ratio (PSR):P/(S+P), where P is the peak height of the product peptide and S is the peak height of the substrate peptide. Reactions were performed in duplicate at 12 concentrations, (3× serial dilutions starting at 30 uM). IC50 values were calculated using a 4 Parameter Logistic Model.

CYP2D6 = molecular target: T2, CYP2D6 (Homo sapiens, UniProt P10635); assay: CYP inhibition assay in human liver microsomes (2D6); type: in vitro ADME; conditions: for inhibition of CYP2D6 (in words): 10 μM; for inhibition at 10 min, 10 µM: human liver microsomes
T2 construct: Human liver microsomes were obtained from BD Gentest; tissue BD Gentest; host or cells: human liver microsomes
T2 sequence (P10635 whole entry): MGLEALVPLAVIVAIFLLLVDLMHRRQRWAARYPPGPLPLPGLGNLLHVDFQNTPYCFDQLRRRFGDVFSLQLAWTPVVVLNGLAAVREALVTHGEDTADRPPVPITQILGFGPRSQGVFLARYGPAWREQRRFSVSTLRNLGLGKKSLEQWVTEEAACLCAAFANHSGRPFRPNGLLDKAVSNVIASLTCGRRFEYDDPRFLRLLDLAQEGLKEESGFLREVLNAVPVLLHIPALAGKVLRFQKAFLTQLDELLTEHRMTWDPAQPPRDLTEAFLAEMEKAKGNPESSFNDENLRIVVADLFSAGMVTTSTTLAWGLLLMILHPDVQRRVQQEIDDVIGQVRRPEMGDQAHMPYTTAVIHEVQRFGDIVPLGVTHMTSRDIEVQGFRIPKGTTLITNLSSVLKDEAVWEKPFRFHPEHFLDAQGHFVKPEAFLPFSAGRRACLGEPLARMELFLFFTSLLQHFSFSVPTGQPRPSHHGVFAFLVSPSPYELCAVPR
Procedure: (§3) Compounds were tested to evaluate their inhibitory potential on CYP2D6 and CYP3A4 (midazolam) using human liver microsomes. Human liver microsomes were obtained from BD Gentest, and each compound was run in duplicate.
(§4) The test compounds and reference inhibitors (quinidine for 2D6, ketoconazole for 3A4) were plated in a 96-well plate by transferring 8 μL of 10 mM stock solutions of compound in DMSO to 12 μL of acetonitrile. Individual inhibitor spiking solutions were prepared for CYP2D6 and CYP3A4 (8 μL of DMSO stock added to 12 μL of acetonitrile). Next added 400 μL of 0.2 mg/mL HLM to the assay wells and then added 2 μL of 400× test compound into the designated wells on ice. Next, added 200 μL of 0.2 mg/mL HLM to the assay wells and then added 1 μL of reference inhibitor solutions into the designated wells. The following solutions were added (in duplicate) to a 96-well assay plate on ice: The test compounds and reference inhibitors (quinidine for 2D6, ketoconazole for 3A4) were tested using the following experimental procedure:
(§5) 10. Incubate the assay plate at 37° C. 5 min for 3A4, 10 min for 2D6.
(§6) 11. Stop the reaction by adding 120 μL of ACN containing Internal Standard. For CYP3A4, the internal standard is 1′OH-midazolam-D4 (10 μM solution diluted to a final concentration of 0.1 μM by adding 100 μL internal standard stock to 10 mL ACN). For CYP2D6, the internal standard is 1-OH-Bufuralol-maleate-[D9] (49 μM solution diluted to a final concentration of 0.1 μM by adding 20 μL internal standard stock to 10 mL ACN).
(§7) The assessment on CYP isoform inhibition is as follows based on the assay results: if percentage of CYP inhibition is higher than 50%, indicates potent inhibition; if percentage of CYP inhibition is between 30-50%, indicates […]; if percentage of CYP inhibition is less than 30%, indicates slight or no inhibition. If the percentage of CYP inhibition is less than −30%, this indicates the compound may have some kind of activation of this isoform.

CYP3A4 = molecular target: T3, CYP3A4 (Homo sapiens, UniProt P08684); assay: CYP inhibition assay in human liver microsomes (3A4, midazolam); type: in vitro ADME; conditions: for inhibition at 5 min, 10 µM: probe midazolam, human liver microsomes, midazolam
T3 construct: Human liver microsomes were obtained from BD Gentest; tissue BD Gentest; host or cells: human liver microsomes
T3 sequence (P08684 whole entry): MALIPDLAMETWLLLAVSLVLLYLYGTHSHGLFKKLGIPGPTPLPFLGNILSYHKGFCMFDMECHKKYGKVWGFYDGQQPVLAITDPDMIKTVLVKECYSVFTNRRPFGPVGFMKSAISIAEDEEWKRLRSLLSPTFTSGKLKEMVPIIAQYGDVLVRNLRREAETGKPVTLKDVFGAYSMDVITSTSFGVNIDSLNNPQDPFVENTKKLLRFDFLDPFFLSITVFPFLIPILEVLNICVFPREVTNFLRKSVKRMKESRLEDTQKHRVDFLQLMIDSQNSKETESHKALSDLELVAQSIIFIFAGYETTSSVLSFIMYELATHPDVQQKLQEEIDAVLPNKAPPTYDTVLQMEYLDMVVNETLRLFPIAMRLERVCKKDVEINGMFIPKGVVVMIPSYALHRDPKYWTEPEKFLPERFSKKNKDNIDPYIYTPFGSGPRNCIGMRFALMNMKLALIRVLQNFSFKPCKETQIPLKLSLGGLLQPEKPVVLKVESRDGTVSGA
Procedure: as §3, §4, §5, §6, §7

[1] = Aqueous kinetic solubility measurement; type: physicochemical; conditions: for solubility at 1 h: aqueous buffer, kinetic from dmso stock, kinetic, 100 mM phosphate buffer pH 7.4, 1% DMSO
Procedure: Compounds were evaluated for their kinetic solubility in buffer or water. Aliquots of 8 μL of reference and test compound stock solutions (10 mM in DMSO) were added into 792 μL of 100 mM phosphate buffer (0.1 M NaPO4, pH 7.4). Final DMSO concentration is 1%. The sample tubes were shaken for 1 hour (1000 rpm) at room temperature. A calibration curve was prepared using 300 μM spiking solution (SS) in MeOH/ACN(4:1) (SS=add 6 μL 10 mM compound in 194 μL MeOH/ACN(4:1)). Samples were centrifuged for 10 min (12000 rpm) to precipitate undissolved particles, and the supernatants were transferred to a new tube or plate. Supernatants were diluted 10 times and 100 times with 100 mM buffer. Samples were then prepared for analysis by LC-MS/MS (Add 5 μL of compound samples (not diluted, 10 times diluted and 100 times diluted) and standard curve samples to 95 μL of ACN containing internal standard. Internal standards used are Propranolol, Ketoconazole, and Tamoxifen.

HDAC2 [2] = molecular target: T4, HDAC2 (Homo sapiens, UniProt Q92769); assay: HDAC2 enzymatic inhibition assay in SY5Y cell lysate with HDAC-Glo2 substrate; type: cell-based; parameters: host or cells: SH-SY5Y; conditions: SH-SY5Y cells, 5 h compound incubation, HDAC-Glo 2 reagent
T4 sequence (Q92769 whole entry): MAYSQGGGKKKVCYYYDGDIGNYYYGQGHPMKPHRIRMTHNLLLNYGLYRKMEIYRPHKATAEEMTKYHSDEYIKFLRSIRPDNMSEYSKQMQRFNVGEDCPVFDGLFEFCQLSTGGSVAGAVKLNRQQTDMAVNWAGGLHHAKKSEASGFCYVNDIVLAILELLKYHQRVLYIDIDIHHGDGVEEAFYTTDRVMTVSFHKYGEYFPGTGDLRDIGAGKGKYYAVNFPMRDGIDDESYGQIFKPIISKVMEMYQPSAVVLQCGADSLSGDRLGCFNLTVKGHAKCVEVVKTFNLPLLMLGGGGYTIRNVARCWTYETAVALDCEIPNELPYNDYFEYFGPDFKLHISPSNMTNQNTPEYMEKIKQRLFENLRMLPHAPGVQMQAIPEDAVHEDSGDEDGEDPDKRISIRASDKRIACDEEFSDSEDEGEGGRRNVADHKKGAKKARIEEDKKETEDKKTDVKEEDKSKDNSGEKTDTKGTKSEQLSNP
Procedure: HDAC2 Enzymatic Inhibition Assay in SY5Y Cell Lysate with HDAC-Glo2 Substrate
SH-SY5Y cells (Sigma) were cultured in Eagle's Modified Essential Medium supplemented with 10% fetal bovine serum and pen/strep. Twenty-four hours prior to compound dosing 20 uL of cells were plated in white 384 well plates at a density of 1,500 cells/well. Compounds were serially diluted in neat DMSO and then diluted 1:100 v/v into media without FBS and mixed. Media was removed from the plated cells and the diluted compounds in serum free media (1% v/v final DMSO) were added and incubated at 37.0 for five hours. Ten uL of HDAC-Glo 2 reagent with 0.1% Triton X-100 was then added, the plate was mixed and allowed to develop at room temperature for 100 minutes. Plates were then read with a Spectramax LMax luminometer employing a 0.4 s integration time. Dose response curves were constructed with normalized data where CI-994 at 100 uM was defined as 100% inhibition and DMSO alone as 0% inhibition.

HDAC2 [3] = molecular target: T4, HDAC2; assay: HDAC2 recombinant enzymatic assay; type: biochemical; parameters: purchased BPS Bioscience; conditions: 5 h pre-incubation, 5 nM enzyme; read-out: HDAC recombinant enzymatic IC50 HDAC2
Procedure: as §1, §2

[4] = tested on: human erythroid progenitors (CFU-E, BFU-E); assay: Erythroid CFU assay in human bone marrow cells; type: cell-based
Procedure: (§8) Compounds were tested to evaluate the potential effects on human erythroid and myeloid progenitors using colony forming cell assays. Clonogenic progenitors of human erythroid (CFU-E, BFU-E), granulocyte-monocyte (CFU-GM) and multipotential (CFU-GEMM) lineages were assessed in a semi-solid methylcellulose-based media formulation containing rhlL-3 (10 ng/mL), rhGM-SCF (10 ng/mL), rhSCF (50 ng/mL) and Epo (3 U/mL).
(§9) Normal human bone marrow light density cells derived from normal bone marrow (NorCal Biologics, California) and qualified at ReachBio, were stored in the gaseous phase of liquid nitrogen (−152° C.) until required for the assay. On the day of the experiment, the cells were thawed rapidly, the contents of each vial was diluted in 10 mL of Iscove's modified Dulbecco's medium containing 10% fetal bovine serum (IMDM+10% FBS) and washed by centrifugation (approximately 1200 r.p.m. for 10 minutes, room temperature). The supernatant was discarded and the cell pellets resuspended in a known volume of IMDM+10% FBS. A cell count (3% glacial acetic acid) and viability assessment (trypan blue exclusion test) was performed for the bone marrow sample.
(§10) On the day of the experiment, the compounds were dissolved in DMSO to a stock concentration of 10 mM. Serial dilutions were prepared from the stock concentration to achieve concentrations of 2 and 0.4 mM. When added to the methylcellulose-based media at 1:1000 (v/v), the final test concentrations of 10, 2 and 0.4 μM were achieved. Additionally, 5-FU was evaluated at 1.0, 0.1 and 0.01 μg/mL.
(§11) Clonogenic progenitors of the human erythroid (CFU-E and BFU-E) and myeloid (CFU-GM) lineages were set up in the methylcellulose-based media formulations described above. All compounds were added to the medium to give the final desired concentrations (10, 2 and 0.4 μM). 5-Fluorouracil (Sigma Aldrich) was used as a positive control for progenitor proliferation (inhibition of colony growth) and was introduced to the human bone marrow cultures at 1.0, 0.1, and 0.01 μg/mL. Solvent control cultures (containing no compound but 0.1% DMSO) as well as standard controls (containing no compound and no DMSO) were also initiated.
(§12) Human myeloid and erythroid progenitor assays were initiated at 2.0×10^4 cells per culture. Following 14 days in culture, myeloid and erythroid colonies were assessed microscopically and scored by trained personnel. The colonies were divided into the following categories based on size and morphology: CFU-E, BFU-E, CFU-GM and CFU-GEMM.
(§13) The mean±one standard deviation of three replicate cultures was calculated for progenitors of each category (CFU-E, BFU-E, etc.). Two-tailed t-tests were performed to assess if there was a difference in the number of colonies generated between solvent control and treated cultures. Due to the potential subjectivity of colony enumeration, a p value of less than 0.01 is deemed significant. To calculate the concentration of 50% inhibition of colony growth (IC50) for each compound, a dose response curve was generated plotting the log of the compound concentration versus the percentage of control colony growth using XLfit software (IDBS). The concentration of 50% inhibition of colony growth (IC50) was calculated based on the sigmoid curve fit using Dose-Response, One-Site Model formula: y=A+[(B−A)/(1+((C/x)^D))], where A=the initial value (baseline response), B=maximum response, C=center (drug concentration that provokes a response halfway between A and B) and D=slope of the curve at midpoint. Further, plots and additional dose response curves were generated using GraphPad Prism 7.0.
(§14) Erythroid (CFU-E and BFU-E), myeloid (CFU-GM) and multi-potential (CFU-GEMM) colony enumeration was performed by trained personnel. The distribution of colony types as well as general colony and cellular morphology was analyzed. For statistical analysis colony numbers in compound treated cultures were compared to the solvent control cultures. […]

[5] = tested on: human myeloid progenitors (CFU-GM); assay: Myeloid CFU assay in human bone marrow cells; type: cell-based
Procedure: as §8, §9, §10, §11, §12, §13, §14

[6] = 10 μM, 14 days culture, human bone marrow cells

T1 sequence (Q13547 whole entry): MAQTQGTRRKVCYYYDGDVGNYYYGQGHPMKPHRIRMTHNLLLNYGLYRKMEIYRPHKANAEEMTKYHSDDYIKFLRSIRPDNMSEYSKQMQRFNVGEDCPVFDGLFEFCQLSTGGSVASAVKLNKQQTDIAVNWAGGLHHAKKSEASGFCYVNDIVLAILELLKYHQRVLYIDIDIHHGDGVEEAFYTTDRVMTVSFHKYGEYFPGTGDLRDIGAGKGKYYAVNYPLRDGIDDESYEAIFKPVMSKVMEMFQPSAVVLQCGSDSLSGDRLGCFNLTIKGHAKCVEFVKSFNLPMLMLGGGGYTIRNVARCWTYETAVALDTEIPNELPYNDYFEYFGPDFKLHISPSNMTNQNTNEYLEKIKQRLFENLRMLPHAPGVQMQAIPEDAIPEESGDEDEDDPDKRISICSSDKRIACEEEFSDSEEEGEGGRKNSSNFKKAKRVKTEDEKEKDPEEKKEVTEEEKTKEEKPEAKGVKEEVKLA

| Structure (SMILES) | IC50 (HDAC1) | inhibition of CYP2D6 (in words) (CYP2D6) | inhibition at 10 min, 10 µM (CYP2D6) | inhibition at 5 min, 10 µM (CYP3A4) | solubility (in words) [1] | solubility at 1 h [1] | IC50 (HDAC2 [2]) | IC50 (HDAC2 [3]) | inhibition of CYP3A4 (in words) (CYP3A4; 10 μM) | CFU % Control remaining @ 10 μM Erythroid [4, 6] | CFU % Control remaining @ 10 μM Myeloid [5, 6] | inhibitory effects on erythroid colony growth (positive control, in words) ([4]; 1.0, 0.1 and 0.01 μg/mL) | inhibitory effects on myeloid colony growth (positive control, in words) ([5]; 1.0, 0.1 and 0.01 μg/mL) |
| --- | --- | --- | --- | --- | --- | --- | --- | --- | --- | --- | --- | --- | --- |
| Nc1ccc(-c2ccc(F)cc2)nc1NC(=O)N1Cc2cccnc2C1 [Comparator F] | 79 nM | high levels | 62% | -4% | extremely low | 1 µM (≈ 0.349 µg/mL) | 394 nM | 304 nM |  |  |  |  |  |
| Nc1ccc(-c2ccc(F)cc2)nc1NC(=O)N1Cc2ccncc2C1 [Comparator G] | 143 nM | inhibited at high levels | 94% | 65% |  | 55 µM (≈ 19.2 µg/mL) | 639 nM | 335 nM | inhibited at high levels |  |  |  |  |
| Cc1cc2c(cn1)CN(C(=O)Nc1nc(-c3ccc(F)cc3)ccc1N)C2 [Comparator H] | 90 nM |  | 57% | 28% |  | 78 µM (≈ 28.3 µg/mL) | 621 nM | 214 nM |  |  |  |  |  |
| COCc1cc2c(cn1)CN(C(=O)Nc1nc(-c3ccc(F)cc3)ccc1N)C2 [Comparator I] |  |  | 2% | 33% |  | 121 µM (≈ 47.6 µg/mL) | 666 nM |  |  | 23% | 59% |  |  |
| O=c1[nH]cc(F)c(=O)[nH]1 [Compound 5-FU, 5-Fluorouracil] |  |  |  |  |  |  |  |  |  |  |  | exactly as expected | exactly as expected |
